Laboratory results taken from patent US20120029187A1, “HALOALKYLSULFONANILIDE DERIVATIVE” (Nissan Chemical Industries, Ltd., priority 2009, published 2012).

Key:
Assay type in all cases: in vivo
barnyardgrass [1] = assay: Test Example 3: herbicidal effects in soil treatment; settings: dose 3.2 g/a
Procedure, shortened: (§1)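 Seeds were sown in sterilized diluvial soil and covered with about 1.5 cm of soil. Compounds, formulated as emulsifiable concentrates and diluted with water, were sprayed evenly over the soil surface at set doses in g/a. Herbicidal effect was scored on a rating scale three weeks later.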

common chickweed [2] = assay: as above; settings: dose 3.2 g/a
Procedure, shortened: as §1

velvetleaf [3] = assay: as above; settings: dose 3.2 g/a
Procedure, shortened: as §1

redroot pigweed [4] = assay: as above; settings: dose 3.2 g/a
Procedure, shortened: as §1

wild oat [5] = assay: as above; settings: dose 3.2 g/a
Procedure, shortened: as §1

giant foxtail [6] = assay: as above; settings: dose 3.2 g/a
Procedure, shortened: as §1

common ragweed [7] = assay: as above; settings: dose 3.2 g/a
Procedure, shortened: as §1

posumbu knotweed [8] = assay: as above; settings: dose 3.2 g/a
Procedure, shortened: as §1

common lambsquater [9] = assay: as above; settings: dose 3.2 g/a
Procedure, shortened: as §1

large crabgrass [10] = assay: as above; settings: dose 3.2 g/a
Procedure, shortened: as §1

water foxtail [11] = assay: as above; settings: dose 3.2 g/a
Procedure, shortened: as §1

Italian ryegrass [12] = assay: as above; settings: dose 3.2 g/a
Procedure, shortened: as §1

barnyardgrass [13] = assay: Test Example 4: herbicidal effect in foliage treatment; settings: dose 3.2 g/a, three weeks after application
Procedure, shortened: (§2)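 14-day greenhouse-grown plants (25–30° C) sprayed on foliage with diluted EC; dose as g/a; effect graded after 3 weeks.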

common chickweed [14] = assay: as above; settings: dose 3.2 g/a, three weeks after application
Procedure, shortened: as §2

velvetleaf [15] = assay: as above; settings: dose 3.2 g/a, three weeks after application
Procedure, shortened: as §2

redroot pigweed [16] = assay: as above; settings: dose 3.2 g/a, three weeks after application
Procedure, shortened: as §2

beadstraw = assay: as above; settings: dose 3.2 g/a, three weeks after application
Procedure, shortened: as §2

wild oat [17] = assay: as above; settings: dose 3.2 g/a, three weeks after application
Procedure, shortened: as §2

giant foxtail [18] = assay: as above; settings: dose 3.2 g/a, three weeks after application
Procedure, shortened: as §2

common ragweed [19] = assay: as above; settings: dose 3.2 g/a, three weeks after application
Procedure, shortened: as §2

posumbu knotweed [20] = assay: as above; settings: dose 3.2 g/a, three weeks after application
Procedure, shortened: as §2

common lambsquater [21] = assay: as above; settings: dose 3.2 g/a, three weeks after application
Procedure, shortened: as §2

large crabgrass [22] = assay: as above; settings: dose 3.2 g/a, three weeks after application
Procedure, shortened: as §2

water foxtail [23] = assay: as above; settings: dose 3.2 g/a, three weeks after application
Procedure, shortened: as §2

Italian ryegrass [24] = assay: as above; settings: dose 3.2 g/a, three weeks after application
Procedure, shortened: as §2

transplanted rice = assay: Test Example 1: preemergence treatment under submerged conditions, effect on crop; settings: dose 2.52 g/a
Procedure, shortened: (§3)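 Scoring 0 (<5% mortality) to 5 (≥90%) was done three weeks after preemergence application to the water surface of submerged (4 cm) alluvial soil, doses given as g per are. Weeds were seeded and 2.5-leaf rice transplanted on the treatment day; greenhouse at 25–30 °C.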

barnyardgrass [25] = assay: Test Example 2: herbicidal effects during the vegetation period under submerged conditions; settings: treatment during the vegetation period under submerged conditions; dose 2.52 g/a
Procedure, shortened: (§4)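 Barnyardgrass, bulrush and ducksalad were co-sown in alluvial soil flooded to 4 cm and grown in a greenhouse at 25 to 30° C. At the 1- or 2-leaf stage, water-diluted emulsifiable concentrates went onto the water surface at set doses (g/a). Herbicidal effect was scored three weeks later on a graded scale.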

ducksalad [26] = assay: as above; settings: treatment during the vegetation period under submerged conditions; dose 2.52 g/a
Procedure, shortened: as §4

bulrush [27] = assay: as above; settings: treatment during the vegetation period under submerged conditions; dose 2.52 g/a
Procedure, shortened: as §4

barnyardgrass [28] = assay: Test Example 1: herbicidal effects in preemergence treatment under submerged conditions; settings: dose 2.52 g/a
Procedure, shortened: as §3

ducksalad [29] = assay: as above; settings: dose 2.52 g/a
Procedure, shortened: as §3

bulrush [30] = assay: as above; settings: dose 2.52 g/a
Procedure, shortened: as §3

SMILES | A: barnyardgrass, herbicidal effect (evaluation scale 0-5) (barnyardgrass [1]) | N: common chickweed, herbicidal effect (evaluation scale 0-5) (common chickweed [2]) | I: velvetleaf, herbicidal effect (evaluation scale 0-5) (velvetleaf [3]) | K: redroot pigweed, herbicidal effect (evaluation scale 0-5) (redroot pigweed [4]) | F: wild oat, herbicidal effect (evaluation scale 0-5) (wild oat [5]) | E: giant foxtail, herbicidal effect (evaluation scale 0-5) (giant foxtail [6]) | J: common ragweed, herbicidal effect (evaluation scale 0-5) (common ragweed [7]) | M: posumbu knotweed, herbicidal effect (evaluation scale 0-5) (posumbu knotweed [8]) | D: large crabgrass, herbicidal effect (evaluation scale 0-5) (large crabgrass [10]) | G: water foxtail, herbicidal effect (evaluation scale 0-5) (water foxtail [11]) | H: Italian ryegrass, herbicidal effect (evaluation scale 0-5) (Italian ryegrass [12]) | A: barnyardgrass, herbicidal effect (barnyardgrass [13]) | N: common chickweed, herbicidal effect (common chickweed [14]) | I: velvetleaf, herbicidal effect (velvetleaf [15]) | K: redroot pigweed, herbicidal effect (redroot pigweed [16]) | O: beadstraw, herbicidal effect (beadstraw) | F: wild oat, herbicidal effect (wild oat [17]) | E: giant foxtail, herbicidal effect (giant foxtail [18]) | J: common ragweed, herbicidal effect (common ragweed [19]) | M: posumbu knotweed, herbicidal effect (posumbu knotweed [20]) | further results
O=C1CC(c2ccccc2)OCN1Cc1ccccc1NS(=O)(=O)C(F)(F)F (stereo not drawn) [II-9] | 5 (mortality of 90% or above (nearly complete death)) | 3 (mortality of at least 40% and less than 70%) | 5 (mortality of 90% or above (nearly complete death)) | 0 (mortality of less than 5% (almost ineffective)) | 3 (mortality of at least 40% and less than 70%) | 4 (mortality of at least 70% and less than 90%) | 0 (mortality of less than 5% (almost ineffective)) | 5 (mortality of 90% or above (nearly complete death)) | 5 (mortality of 90% or above (nearly complete death)) | 5 (mortality of 90% or above (nearly complete death)) | 4 (mortality of at least 70% and less than 90%) | 5 (mortality of 90% or above (nearly complete death)) | 3 (mortality of at least 40% and less than 70%) | 1 (mortality of at least 5% and less than 20%) | 0 (mortality of less than 5% (almost ineffective)) | 4 (mortality of at least 70% and less than 90%) | 0 (mortality of less than 5% (almost ineffective)) | 4 (mortality of at least 70% and less than 90%) | 3 (mortality of at least 40% and less than 70%) | 5 (mortality of 90% or above (nearly complete death)) | L: common lambsquater, herbicidal effect (evaluation scale 0-5) (common lambsquater [9]): 0 (mortality of less than 5% (almost ineffective)); L: common lambsquater, herbicidal effect (common lambsquater [21]): 0 (mortality of less than 5% (almost ineffective)); D: large crabgrass, herbicidal effect (large crabgrass [22]): 0 (mortality of less than 5% (almost ineffective)); G: water foxtail, herbicidal effect (water foxtail [23]): 4 (mortality of at least 70% and less than 90%); H: Italian ryegrass, herbicidal effect (Italian ryegrass [24]): 1 (mortality of at least 5% and less than 20%); a: transplanted rice, effect on crop (evaluation scale 0-5) (transplanted rice): 0 (mortality of less than 5% (almost ineffective)); A: barnyardgrass, herbicidal effect (evaluation scale 0-5) (barnyardgrass [25]): 5 (mortality of 90% or above (nearly complete death)); C: ducksalad, herbicidal effect (evaluation scale 0-5) (ducksalad [26]): 5 (mortality of 90% or above (nearly complete death)); B: bulrush, herbicidal effect (evaluation scale 0-5) (bulrush [27]): 5 (mortality of 90% or above (nearly complete death)); A: barnyardgrass, herbicidal effect (evaluation scale 0-5) (barnyardgrass [28]): 5 (mortality of 90% or above (nearly complete death)); C: ducksalad, herbicidal effect (evaluation scale 0-5) (ducksalad [29]): 5 (mortality of 90% or above (nearly complete death)); B: bulrush, herbicidal effect (evaluation scale 0-5) (bulrush [30]): 5 (mortality of 90% or above (nearly complete death))
CCCOC(=O)N(c1ccccc1CN1COC(C)(C)CC1=O)S(=O)(=O)C(F)(F)F [II-24] | 4 (mortality of at least 70% and less than 90%) | 3 (mortality of at least 40% and less than 70%) | 5 (mortality of 90% or above (nearly complete death)) | 0 (mortality of less than 5% (almost ineffective)) | 0 (mortality of less than 5% (almost ineffective)) | 3 (mortality of at least 40% and less than 70%) | 4 (mortality of at least 70% and less than 90%) | 4 (mortality of at least 70% and less than 90%) | 4 (mortality of at least 70% and less than 90%) | 5 (mortality of 90% or above (nearly complete death)) | 5 (mortality of 90% or above (nearly complete death)) | 5 (mortality of 90% or above (nearly complete death)) | 4 (mortality of at least 70% and less than 90%) | 4 (mortality of at least 70% and less than 90%) | 0 (mortality of less than 5% (almost ineffective)) | 5 (mortality of 90% or above (nearly complete death)) | 0 (mortality of less than 5% (almost ineffective)) | 4 (mortality of at least 70% and less than 90%) | 3 (mortality of at least 40% and less than 70%) | 3 (mortality of at least 40% and less than 70%) | L: common lambsquater, herbicidal effect (common lambsquater [21]): 0 (mortality of less than 5% (almost ineffective)); D: large crabgrass, herbicidal effect (large crabgrass [22]): 4 (mortality of at least 70% and less than 90%); G: water foxtail, herbicidal effect (water foxtail [23]): 5 (mortality of 90% or above (nearly complete death)); H: Italian ryegrass, herbicidal effect (Italian ryegrass [24]): 4 (mortality of at least 70% and less than 90%); a: transplanted rice, effect on crop (evaluation scale 0-5) (transplanted rice): 0 (mortality of less than 5% (almost ineffective)); A: barnyardgrass, herbicidal effect (evaluation scale 0-5) (barnyardgrass [25]): 5 (mortality of 90% or above (nearly complete death)); C: ducksalad, herbicidal effect (evaluation scale 0-5) (ducksalad [26]): 5 (mortality of 90% or above (nearly complete death)); B: bulrush, herbicidal effect (evaluation scale 0-5) (bulrush [27]): 5 (mortality of 90% or above (nearly complete death)); A: barnyardgrass, herbicidal effect (evaluation scale 0-5) (barnyardgrass [28]): 5 (mortality of 90% or above (nearly complete death)); C: ducksalad, herbicidal effect (evaluation scale 0-5) (ducksalad [29]): 5 (mortality of 90% or above (nearly complete death)); B: bulrush, herbicidal effect (evaluation scale 0-5) (bulrush [30]): 5 (mortality of 90% or above (nearly complete death))
